# From the NIST ThermoML archive (doi:10.1016/j.jct.2014.05.016)
# ± gives the expanded uncertainty stated by the source.
# Assay: xn = mol fraction of the nth substance listed
# Settings: 100 kPa, Liquid; for mass density: Vibrating tube method; for viscosity: Concentric cylinders viscometry
structure (smiles),measurement,setting,value
C[n+]1ccn(CCO)c1.F[B-](F)(F)F [1-(2-hydroxyethyl)-3-methylimidazolium tetrafluoroborate] + CCCC[n+]1ccccc1.F[B-](F)(F)F,mass density,"318.15 K, x1 = 0.1003",1211.8 ± 1.1 kg/m3
same,mass density,"318.15 K, x1 = 0.2004",1225 ± 1.1 kg/m3
same,mass density,"318.15 K, x1 = 0.3003",1238.3 ± 1.1 kg/m3
same,mass density,"318.15 K, x1 = 0.3999",1252 ± 1.1 kg/m3
same,mass density,"318.15 K, x1 = 0.5007",1266.3 ± 1.1 kg/m3
same,mass density,"318.15 K, x1 = 0.5991",1280.7 ± 1.1 kg/m3
same,mass density,"318.15 K, x1 = 0.6954",1295.2 ± 1.1 kg/m3
same,mass density,"318.15 K, x1 = 0.7997",1311.4 ± 1.1 kg/m3
same,mass density,"318.15 K, x1 = 0.8996",1327.5 ± 1.1 kg/m3
same,mass density,"318.15 K, x1 = 1",1343.7 ± 1.1 kg/m3
same,viscosity,"323.15 K, x1 = 0.1003",46.31 ± 3.7 mPa·s
same,viscosity,"323.15 K, x1 = 0.2001",44.75 ± 3.6 mPa·s
same,viscosity,"323.15 K, x1 = 0.2997",43.16 ± 3.5 mPa·s
same,viscosity,"323.15 K, x1 = 0.3999",41.83 ± 3.4 mPa·s
same,viscosity,"323.15 K, x1 = 0.4996",40.75 ± 3.3 mPa·s
same,viscosity,"323.15 K, x1 = 0.5991",39.57 ± 3.2 mPa·s
same,viscosity,"323.15 K, x1 = 0.6997",38.63 ± 3.1 mPa·s
same,viscosity,"323.15 K, x1 = 0.7999",37.9 ± 3 mPa·s
same,viscosity,"323.15 K, x1 = 0.8998",36.75 ± 2.9 mPa·s
same,viscosity,"323.15 K, x1 = 1",36.5 ± 2.9 mPa·s
same,mass density,"323.15 K, x1 = 0.1003",1208.4 ± 1.1 kg/m3
same,mass density,"323.15 K, x1 = 0.2004",1221.5 ± 1.1 kg/m3
same,mass density,"323.15 K, x1 = 0.3003",1234.8 ± 1.1 kg/m3
same,mass density,"323.15 K, x1 = 0.3999",1248.5 ± 1.1 kg/m3
same,mass density,"323.15 K, x1 = 0.5007",1262.7 ± 1.1 kg/m3
same,mass density,"323.15 K, x1 = 0.5991",1277.1 ± 1.1 kg/m3
same,mass density,"323.15 K, x1 = 0.6954",1291.8 ± 1.1 kg/m3
same,mass density,"323.15 K, x1 = 0.7997",1307.8 ± 1.1 kg/m3
same,mass density,"323.15 K, x1 = 0.8996",1323.8 ± 1.1 kg/m3
same,mass density,"323.15 K, x1 = 1",1340.1 ± 1.1 kg/m3
same,viscosity,"328.15 K, x1 = 0.1003",38.01 ± 3.1 mPa·s
same,viscosity,"328.15 K, x1 = 0.2001",36.85 ± 3 mPa·s
same,viscosity,"328.15 K, x1 = 0.2997",35.7 ± 2.9 mPa·s
same,viscosity,"328.15 K, x1 = 0.3999",34.64 ± 2.8 mPa·s
same,viscosity,"328.15 K, x1 = 0.4996",33.74 ± 2.7 mPa·s
same,viscosity,"328.15 K, x1 = 0.5991",32.9 ± 2.6 mPa·s
same,viscosity,"328.15 K, x1 = 0.6997",32.19 ± 2.6 mPa·s
same,viscosity,"328.15 K, x1 = 0.7999",31.58 ± 2.5 mPa·s
same,viscosity,"328.15 K, x1 = 0.8998",30.65 ± 2.5 mPa·s
same,viscosity,"328.15 K, x1 = 1",30.46 ± 2.4 mPa·s
same,mass density,"328.15 K, x1 = 0.1003",1205.1 ± 1.1 kg/m3
same,mass density,"328.15 K, x1 = 0.2004",1218.1 ± 1.1 kg/m3
same,mass density,"328.15 K, x1 = 0.3003",1231.3 ± 1.1 kg/m3
same,mass density,"328.15 K, x1 = 0.3999",1245 ± 1.1 kg/m3
same,mass density,"328.15 K, x1 = 0.5007",1259.2 ± 1.1 kg/m3
same,mass density,"328.15 K, x1 = 0.5991",1273.5 ± 1.1 kg/m3
same,mass density,"328.15 K, x1 = 0.6954",1288 ± 1.1 kg/m3
same,mass density,"328.15 K, x1 = 0.7997",1304.1 ± 1.1 kg/m3
same,mass density,"328.15 K, x1 = 0.8996",1320.2 ± 1.1 kg/m3
same,mass density,"328.15 K, x1 = 1",1336.4 ± 1.1 kg/m3
same,viscosity,"333.15 K, x1 = 0.1003",31.61 ± 2.5 mPa·s
same,viscosity,"333.15 K, x1 = 0.2001",30.75 ± 2.5 mPa·s
same,viscosity,"333.15 K, x1 = 0.2997",29.88 ± 2.4 mPa·s
same,viscosity,"333.15 K, x1 = 0.3999",29.05 ± 2.3 mPa·s
same,viscosity,"333.15 K, x1 = 0.4996",28.35 ± 2.3 mPa·s
same,viscosity,"333.15 K, x1 = 0.5991",27.7 ± 2.2 mPa·s
same,viscosity,"333.15 K, x1 = 0.6997",27.13 ± 2.2 mPa·s
same,viscosity,"333.15 K, x1 = 0.7999",26.61 ± 2.1 mPa·s
same,viscosity,"333.15 K, x1 = 0.8998",25.87 ± 2.1 mPa·s
same,viscosity,"333.15 K, x1 = 1",25.73 ± 2.1 mPa·s
same,mass density,"333.15 K, x1 = 0.1003",1201.7 ± 1.1 kg/m3
same,mass density,"333.15 K, x1 = 0.2004",1214.6 ± 1.1 kg/m3
same,mass density,"333.15 K, x1 = 0.3003",1227.9 ± 1.1 kg/m3
same,mass density,"333.15 K, x1 = 0.3999",1241.5 ± 1.1 kg/m3
same,mass density,"333.15 K, x1 = 0.5007",1255.7 ± 1.1 kg/m3
same,mass density,"333.15 K, x1 = 0.5991",1270 ± 1.1 kg/m3
same,mass density,"333.15 K, x1 = 0.6954",1284.4 ± 1.1 kg/m3
same,mass density,"333.15 K, x1 = 0.7997",1300.5 ± 1.1 kg/m3
same,mass density,"333.15 K, x1 = 0.8996",1316.6 ± 1.1 kg/m3
same,mass density,"333.15 K, x1 = 1",1332.8 ± 1.1 kg/m3
same,viscosity,"338.15 K, x1 = 0.1003",26.6 ± 2.1 mPa·s
same,viscosity,"338.15 K, x1 = 0.2001",25.96 ± 2.1 mPa·s
same,viscosity,"338.15 K, x1 = 0.2997",25.28 ± 2 mPa·s
same,viscosity,"338.15 K, x1 = 0.3999",24.64 ± 2 mPa·s
same,viscosity,"338.15 K, x1 = 0.4996",24.09 ± 1.9 mPa·s
same,viscosity,"338.15 K, x1 = 0.5991",23.58 ± 1.9 mPa·s
same,viscosity,"338.15 K, x1 = 0.6997",23.11 ± 1.9 mPa·s
same,viscosity,"338.15 K, x1 = 0.7999",22.69 ± 1.8 mPa·s
same,viscosity,"338.15 K, x1 = 0.8998",22.08 ± 1.8 mPa·s
same,viscosity,"338.15 K, x1 = 1",21.98 ± 1.8 mPa·s
same,mass density,"338.15 K, x1 = 0.1003",1198.3 ± 1.1 kg/m3
same,mass density,"338.15 K, x1 = 0.2004",1211.2 ± 1.1 kg/m3
same,mass density,"338.15 K, x1 = 0.3003",1224.4 ± 1.1 kg/m3
same,mass density,"338.15 K, x1 = 0.3999",1238 ± 1.1 kg/m3
same,mass density,"338.15 K, x1 = 0.5007",1252.2 ± 1.1 kg/m3
same,mass density,"338.15 K, x1 = 0.5991",1266.5 ± 1.1 kg/m3
same,mass density,"338.15 K, x1 = 0.6954",1280.9 ± 1.1 kg/m3
same,mass density,"338.15 K, x1 = 0.7997",1297 ± 1.1 kg/m3
same,mass density,"338.15 K, x1 = 0.8996",1312.9 ± 1.1 kg/m3
same,mass density,"338.15 K, x1 = 1",1329.2 ± 1.1 kg/m3
same,viscosity,"343.15 K, x1 = 0.1003",22.64 ± 1.8 mPa·s
same,viscosity,"343.15 K, x1 = 0.2001",22.15 ± 1.8 mPa·s
same,viscosity,"343.15 K, x1 = 0.2997",21.6 ± 1.7 mPa·s
same,viscosity,"343.15 K, x1 = 0.3999",21.12 ± 1.7 mPa·s
same,viscosity,"343.15 K, x1 = 0.4996",20.68 ± 1.7 mPa·s
same,viscosity,"343.15 K, x1 = 0.5991",20.28 ± 1.6 mPa·s
same,viscosity,"343.15 K, x1 = 0.6997",19.9 ± 1.6 mPa·s
same,viscosity,"343.15 K, x1 = 0.7999",19.56 ± 1.6 mPa·s
same,viscosity,"343.15 K, x1 = 0.8998",19.05 ± 1.5 mPa·s
same,viscosity,"343.15 K, x1 = 1",18.95 ± 1.5 mPa·s
same,mass density,"343.15 K, x1 = 0.1003",1194.9 ± 1.1 kg/m3
same,mass density,"343.15 K, x1 = 0.2004",1207.8 ± 1.1 kg/m3
same,mass density,"343.15 K, x1 = 0.3003",1221 ± 1.1 kg/m3
same,mass density,"343.15 K, x1 = 0.3999",1234.6 ± 1.1 kg/m3
same,mass density,"343.15 K, x1 = 0.5007",1248.7 ± 1.1 kg/m3
same,mass density,"343.15 K, x1 = 0.5991",1263 ± 1.1 kg/m3
same,mass density,"343.15 K, x1 = 0.6954",1277.3 ± 1.1 kg/m3
same,mass density,"343.15 K, x1 = 0.7997",1293.4 ± 1.1 kg/m3
same,mass density,"343.15 K, x1 = 0.8996",1309.3 ± 1.1 kg/m3
same,mass density,"343.15 K, x1 = 1",1325.5 ± 1.1 kg/m3
